Measured values taken from patent US8158621B2, “Methods of treating or preventing autoimmune diseases with 2,4-pyrimidinediamine compounds” (Rigel Pharmaceuticals, Inc., priority 2002, dated 2012).

Each compound was assayed on cultured human mast cells (CHMC) (assay: CHMC low cell density ionomycin activation: tryptase assay). Conditions: Homo sapiens, Mast cell, Low Density; read-out: CHMC Ionomycin Tryptase.
Format: cell-based

Row | Structure (SMILES) | IC50
1 | CC1=C(Nc2ncc(F)c(Nc3ccc4c(c3)OCCO4)n2)N(c2ccccc2)CO1 [Compound R926793] | > 10 µM

Same assay, conditions: Low Density CHMC, ionomycin activation, tryptase release; read-out: CHMC Ionomycin Tryptase IC50

Row | Structure (SMILES) | IC50
2 | O=C(NNc1nc(Nc2ccc3c(c2)OCCO3)ncc1F)c1ccc2c(c1)OCO2 [Compound R926406] | > 10 µM

Same assay, conditions: Low Density; read-out: CHMC Ionomycin Tryptase

Row | Structure (SMILES) | IC50
3 | COC(=O)c1cc(Nc2nc(Nc3ccc(OC(C)C)cc3)ncc2F)cn1C [Compound R935165] | > 10 µM
4 | Cc1cc(Nc2nc(Nc3cccc(OCCN4CCOCC4)c3)ncc2F)cc(Cl)c1O [Compound R940269] | > 10 µM

Same assay, conditions: low cell density; read-out: CHMC Ionomycin Tryptase

Row | Structure (SMILES) | IC50
5 | O=C(NCC(O)CO)C1Cc2cc(Nc3ncc(F)c(Nc4ccc(OC(F)(F)F)c(Cl)c4)n3)ccc2O1 (mixture of isomers) [Compound R926958] | > 10 µM
6 | COc1cc(Nc2ncc(F)c(Nc3ccc4c(c3)NC(=O)C(CCO)O4)n2)cc(OC)c1 (racemic) [Compound R908950] | 47.5 µM
7 | O=C(NCCO)C1Cc2cc(Nc3ncc(F)c(Nc4ccc(OC(F)(F)F)c(Cl)c4)n3)ccc2O1 (racemic) [Compound R926959] | > 10 µM
8 | CN(CCO)C(=O)C1Cc2cc(Nc3ncc(F)c(Nc4ccc(OC(F)(F)F)c(Cl)c4)n3)ccc2O1 (racemic) [Compound R926960] | > 10 µM
9 | COc1ccc(Nc2nc(Nc3cccc(OCC(=O)NCC(O)CO)c3)ncc2F)cc1Cl (racemic) [Compound R926964] | > 10 µM
10 | CNCC1Cc2cc(Nc3ncc(F)c(Nc4ccc(OC)c(Cl)c4)n3)ccc2O1 (racemic) [Compound R927045] | > 10 µM
11 | CNC(=O)COc1cccc(Nc2ncc(F)c(Nc3ccc4c(c3)C(NC(=O)OC(C)(C)C)CCO4)n2)c1 (racemic) [Compound R950405] | > 10 µM
12 | CNC(=O)COc1cccc(Nc2ncc(F)c(Nc3ccc4c(c3)C(N(C)C(=O)OC(C)(C)C)CCO4)n2)c1 (racemic) [Compound R950415] | 16.3 µM
13 | CNC(=O)COc1cccc(Nc2ncc(F)c(Nc3ccc4c(c3)C(N(C)C(=O)CN(C)C)CCO4)n2)c1 (racemic) [Compound R950419] | > 10 µM
14 | CC(C)(C)OC(=O)NC1CCOc2ccc(Nc3nc(Nc4ccc5cn[nH]c5c4)ncc3F)cc21 (racemic) [Compound R950422] | 6.53 µM
15 | NC1CCOc2ccc(Nc3nc(Nc4ccc5cn[nH]c5c4)ncc3F)cc21 (racemic) [Compound R950423] | > 10 µM
16 | COc1c(Cl)cc(Nc2ncc(F)c(Nc3ccc4c(c3)C(N)CCO4)n2)cc1Cl (racemic) [Compound R950424] | 4.28 µM
17 | COc1cc(Nc2ncc(F)c(Nc3ccc4c(c3)C(N)CCO4)n2)cc(OC)c1 (racemic) [Compound R950426] | 30 µM
18 | CCN(CC)CCNC(=O)c1ccc(Nc2ncc(F)c(Nc3ccc4c(c3)NC(=O)C(CCO)O4)n2)cc1 (racemic) [Compound R950448] | 36 µM
19 | NC(=O)c1ccc(Nc2ncc(F)c(Nc3ccc4c(c3)NC(=O)C(CCO)O4)n2)cc1 (racemic) [Compound R950454] | > 10 µM
20 | COc1c(Cl)cc(Nc2ncc(F)c(Nc3ccc4c(c3)NC(=O)[C@H](C)O4)n2)cc1Cl [Compound R908946] | > 10 µM
21 | COc1c(Cl)cc(Nc2ncc(F)c(Nc3ccc4c(c3)NC(=O)[C@@H](C)O4)n2)cc1Cl [Compound R908947] | > 10 µM
22 | COc1ccc(Nc2ncc(F)c(Nc3ccc4c(c3)NC(=O)C(CCO)O4)n2)cc1Cl (centres unmarked) [Compound R908951] | 5.48 µM
23 | CNC(=O)COc1cccc(Nc2ncc(F)c(Nc3ccc4c(c3)C(=O)NC(=O)C4(C)C)n2)c1 [Compound R909318] | > 10 µM
24 | Cc1cc(Nc2ncc(F)c(Nc3ccc4c(c3)C(=O)NC(=O)C4(C)C)n2)cc(Cl)c1O [Compound R909320] | > 10 µM
25 | COc1cc(Nc2ncc(F)c(Nc3ccc4c(c3)C(=O)NC(=O)C4(C)C)n2)cc(OC)c1 [Compound R909323] | > 10 µM
26 | O=C(O)C1Cc2cc(Nc3ncc(F)c(Nc4ccc(OC(F)(F)F)c(Cl)c4)n3)ccc2O1 (centres unmarked) [Compound R926957] | > 10 µM
27 | CC(C)NC(=O)C1Cc2cc(Nc3ncc(F)c(Nc4ccc(OC(F)(F)F)c(Cl)c4)n3)ccc2O1 (centres unmarked) [Compound R926961] | > 10 µM
28 | CNC(=O)COc1cccc(Nc2ncc(F)c(Nc3ccc(OC(C)C)nc3)n2)c1 [Compound R926962] | > 10 µM

Each compound was assayed on Human Jurkat T-cells (clone N) (assay: Jurkat T-cell activation (anti-TCR, CD69 upregulation)). Conditions: not given.
Format: cell-based
Procedure, shortened: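 Jurkat cells in RPMI + 5% FBS preincubated with compound 1 h at 37 °C, then stimulated with anti-TCR C305 at 500 ng/ml for 20 h. CD69 surface expression stained with anti-CD69-APC and read by flow cytometry; IC50 versus solvent-only control.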

Row | Structure (SMILES) | IC50
29 | COC(=O)c1cc(Nc2nc(Nc3ccc(OC(C)C)cc3)ncc2F)cn1C [Compound R935165] | > 10 µM
30 | Cc1cc(Nc2nc(Nc3cccc(OCCN4CCOCC4)c3)ncc2F)cc(Cl)c1O [Compound R940269] | 1.9 µM

What follows are compounds tested on cultured human mast cells (CHMC) (assay: CHMC low cell density IgE activation: tryptase assay). Conditions: Homo sapiens, Mast cell, Low Density; read-out: CHMC anti-IgE Tryptase.
Format: cell-based
Procedure, shortened: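 Low-density CHMC assay: donor-adjusted 1000-1500 cells/well, MT buffer, 1 hr 37° C preincubation; anti-IgE stimulus 30 min 37° C versus MT-only controls; supernatant tryptase by substrate, 30 min RT.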

Row | Structure (SMILES) | IC50
31 | CC1=C(Nc2ncc(F)c(Nc3ccc4c(c3)OCCO4)n2)N(c2ccccc2)CO1 [Compound R926793] | 3.07 µM

Same assay, conditions: Low Density CHMC, anti-IgE activation, tryptase release; read-out: CHMC anti-IgE Tryptase IC50

Row | Structure (SMILES) | IC50
32 | O=C(NNc1nc(Nc2ccc3c(c2)OCCO3)ncc1F)c1ccc2c(c1)OCO2 [Compound R926406] | > 10 µM

Same assay, conditions: low cell density; read-out: CHMC anti-IgE Tryptase

Row | Structure (SMILES) | IC50
33 | O=C(NCC(O)CO)C1Cc2cc(Nc3ncc(F)c(Nc4ccc(OC(F)(F)F)c(Cl)c4)n3)ccc2O1 (mixture of isomers) [Compound R926958] | 0.353 µM
34 | COc1cc(Nc2ncc(F)c(Nc3ccc4c(c3)NC(=O)C(CCO)O4)n2)cc(OC)c1 (racemic) [Compound R908950] | 0.074 µM
35 | O=C(NCCO)C1Cc2cc(Nc3ncc(F)c(Nc4ccc(OC(F)(F)F)c(Cl)c4)n3)ccc2O1 (racemic) [Compound R926959] | 0.3 µM
36 | CN(CCO)C(=O)C1Cc2cc(Nc3ncc(F)c(Nc4ccc(OC(F)(F)F)c(Cl)c4)n3)ccc2O1 (racemic) [Compound R926960] | 0.399 µM
37 | COc1ccc(Nc2nc(Nc3cccc(OCC(=O)NCC(O)CO)c3)ncc2F)cc1Cl (racemic) [Compound R926964] | 0.368 µM
38 | CNCC1Cc2cc(Nc3ncc(F)c(Nc4ccc(OC)c(Cl)c4)n3)ccc2O1 (racemic) [Compound R927045] | 0.535 µM
39 | CNC(=O)COc1cccc(Nc2ncc(F)c(Nc3ccc4c(c3)C(NC(=O)OC(C)(C)C)CCO4)n2)c1 (racemic) [Compound R950405] | 1.36 µM
40 | CNC(=O)COc1cccc(Nc2ncc(F)c(Nc3ccc4c(c3)C(N(C)C(=O)OC(C)(C)C)CCO4)n2)c1 (racemic) [Compound R950415] | 5.19 µM
41 | CNC(=O)COc1cccc(Nc2ncc(F)c(Nc3ccc4c(c3)C(N(C)C(=O)CN(C)C)CCO4)n2)c1 (racemic) [Compound R950419] | 3.26 µM
42 | CC(C)(C)OC(=O)NC1CCOc2ccc(Nc3nc(Nc4ccc5cn[nH]c5c4)ncc3F)cc21 (racemic) [Compound R950422] | 0.475 µM
43 | NC1CCOc2ccc(Nc3nc(Nc4ccc5cn[nH]c5c4)ncc3F)cc21 (racemic) [Compound R950423] | 0.05 µM
44 | COc1c(Cl)cc(Nc2ncc(F)c(Nc3ccc4c(c3)C(N)CCO4)n2)cc1Cl (racemic) [Compound R950424] | 0.236 µM
45 | COc1cc(Nc2ncc(F)c(Nc3ccc4c(c3)C(N)CCO4)n2)cc(OC)c1 (racemic) [Compound R950426] | 0.142 µM
46 | CCN(CC)CCNC(=O)c1ccc(Nc2ncc(F)c(Nc3ccc4c(c3)NC(=O)C(CCO)O4)n2)cc1 (racemic) [Compound R950448] | 1.08 µM
47 | NC(=O)c1ccc(Nc2ncc(F)c(Nc3ccc4c(c3)NC(=O)C(CCO)O4)n2)cc1 (racemic) [Compound R950454] | 8.64 µM
48 | COc1c(Cl)cc(Nc2ncc(F)c(Nc3ccc4c(c3)NC(=O)[C@H](C)O4)n2)cc1Cl [Compound R908946] | 0.51 µM
49 | COc1c(Cl)cc(Nc2ncc(F)c(Nc3ccc4c(c3)NC(=O)[C@@H](C)O4)n2)cc1Cl [Compound R908947] | 0.496 µM
50 | COc1ccc(Nc2ncc(F)c(Nc3ccc4c(c3)NC(=O)C(CCO)O4)n2)cc1Cl (centres unmarked) [Compound R908951] | 0.085 µM
51 | CNC(=O)COc1cccc(Nc2ncc(F)c(Nc3ccc4c(c3)C(=O)NC(=O)C4(C)C)n2)c1 [Compound R909318] | 1.02 µM
52 | Cc1cc(Nc2ncc(F)c(Nc3ccc4c(c3)C(=O)NC(=O)C4(C)C)n2)cc(Cl)c1O [Compound R909320] | 0.29 µM
53 | COc1cc(Nc2ncc(F)c(Nc3ccc4c(c3)C(=O)NC(=O)C4(C)C)n2)cc(OC)c1 [Compound R909323] | > 10 µM
54 | O=C(O)C1Cc2cc(Nc3ncc(F)c(Nc4ccc(OC(F)(F)F)c(Cl)c4)n3)ccc2O1 (centres unmarked) [Compound R926957] | 1.52 µM
55 | CC(C)NC(=O)C1Cc2cc(Nc3ncc(F)c(Nc4ccc(OC(F)(F)F)c(Cl)c4)n3)ccc2O1 (centres unmarked) [Compound R926961] | 1.2 µM
56 | CNC(=O)COc1cccc(Nc2ncc(F)c(Nc3ccc(OC(C)C)nc3)n2)c1 [Compound R926962] | 0.205 µM
